Source: patent US20260152487A1 (Sitryx Therapeutics Limited, priority 2021, published 2026)

Biological target: T1, recombinant human PKM2 (Homo sapiens, UniProt P14618)
T1 construct: His (N); purchased R&D Systems
Assay: Human PKM2 activation assay (Kinase-Glo Plus luminescent detection of generated ATP)
Assay type: biochemical
Settings: for Emax: read-out: hPKM2 Emax; for EC50: recombinant human PKM2 activation, 4-parameter logistic fit, read-out: hPKM2 EC50
Procedure: Compound activation of recombinant human PKM2 pyruvate kinase activity was determined by biochemical assay. N-terminal His-tagged hPKM2 was sourced from R&D Systems and its substrates phosphoenolpyruvate (PEP) and ADP from Sigma-Aldrich and 2Bscientific Ltd, respectively. The Kinase-Glo® Plus luminescence assay was from Promega. All other reagents were from Sigma-Aldrich. Test Compounds were prepared as 10 mM DMSO stocks and dilution series prepared in DMSO for direct dilution into Assay Buffer comprising 50 mM imidazole, 50 mM KCl, 7 mM MgCl2, 0.01% Tween20, 0.05% BSA (pH 7.2).
Human PKM2 was diluted into Assay Buffer comprising 50 mM imidazole, 50 mM KCl, 7 mM MgCl2, 0.01% Tween20, 0.05% BSA (pH 7.2) to a final concentration of […]. Enzyme-Assay Buffer mix was dispensed into a 384-well shallow-well white-walled plate (PerkinElmer) and Test Compounds added by acoustic dispense (Echo®, Labcyte Inc.).
After 60 minutes' incubation on an orbital shaker (300 rpm, 26° C.), enzyme activity was quantified by the luminescent detection of generated ATP. Kinase-Glo® Plus reagent was added to each well and the plates incubated for a further 15 minutes on an orbital shaker in the dark (300 rpm, 26° C.) before luminescence measurement on a plate reader (PHERAstar® FSX, BMG Labtech).
Percentage activation was calculated by normalising […] signals to plate LOW (DMSO vehicle) and HIGH (5 μM TEPP-46) controls. EC50 and Emax values were determined from 4-parameter logistic fits of compound concentration-response curves.

[1] = percentage activation normalised to DMSO vehicle (LOW) and 5 μM TEPP-46 (HIGH)

T1 sequence (P14618 2-531 limits assumed): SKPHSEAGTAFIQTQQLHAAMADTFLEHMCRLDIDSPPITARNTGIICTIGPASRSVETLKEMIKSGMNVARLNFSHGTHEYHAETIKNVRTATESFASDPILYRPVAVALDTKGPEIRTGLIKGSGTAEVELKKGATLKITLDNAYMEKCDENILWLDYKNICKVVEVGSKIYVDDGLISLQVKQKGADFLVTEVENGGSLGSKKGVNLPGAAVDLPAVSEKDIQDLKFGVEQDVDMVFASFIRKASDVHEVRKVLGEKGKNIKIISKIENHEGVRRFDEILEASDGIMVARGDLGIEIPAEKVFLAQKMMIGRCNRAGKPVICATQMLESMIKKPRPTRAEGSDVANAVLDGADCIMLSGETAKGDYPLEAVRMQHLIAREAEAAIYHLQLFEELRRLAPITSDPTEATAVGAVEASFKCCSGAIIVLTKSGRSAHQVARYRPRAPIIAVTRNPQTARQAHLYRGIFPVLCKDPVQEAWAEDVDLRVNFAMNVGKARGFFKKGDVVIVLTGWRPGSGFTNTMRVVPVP

COc1ccc(Cn2ncc3cc(S(=N)(=O)c4ccc5c(c4)CCO5)ccc3c2=O)cn1 (racemic) [Example 127, 6-(2,3-dihydrobenzofuran-5-sulfonimidoyl)-2-((6-methoxypyridin-3-yl)methyl)phthalazin-1(2H)-one]
Emax [1]: 68.3%
EC50: 0.0433 µM

COc1ccc(Cn2ncc3cc(S(=O)(=O)c4cnc5c(c4)OCCO5)ccc3c2=O)cn1 [Example 130, 6-((2,3-dihydro-[1,4]dioxino[2,3-b]pyridin-7-yl)sulfonyl)-2-((6-methoxypyridin-3-yl)methyl)phthalazin-1(2H)-one]
Emax [1]: 57.1%
EC50: 0.225 µM

Cc1cc2cc(S(=O)(=O)c3ccc4c(=O)n(Cc5cc[nH]n5)ncc4c3)ccc2o1 [Example 224, 2-((1H-pyrazol-3-yl)methyl)-6-((2-methylbenzofuran-5-yl)sulfonyl)phthalazin-1(2H)-one]
Emax [1]: 121%
EC50: 0.0436 µM

Cc1[nH]nc(Cn2ncc3cc(S(=O)(=O)c4cnn(C)c4)ccc3c2=O)c1C [Example 348]
Emax [1]: 94.3%
EC50: 0.0516 µM

Cc1cccc(Cn2ncc3cc(S(=O)(=O)c4csc([C@H](C)O)n4)ccc3c2=O)n1 (single isomer, unassigned) [Example 297]
Emax [1]: 94.7%
EC50: 0.103 µM

Cn1ccc(Cn2ncc3cc(S(=O)(=O)c4ccc(OC(F)F)cc4)ccc3c2=O)n1 [Example 212, 6-((4-(difluoromethoxy)phenyl)sulfonyl)-2-((1-methyl-1H-pyrazol-3-yl)methyl)phthalazin-1(2H)-one]
Emax [1]: 108%
EC50: 0.0238 µM

Cn1cc(S(=O)(=O)c2ccc3c(=O)n(Cc4ccn(C5CC5)n4)ncc3c2)cn1 [Example 236, 2-((1-cyclopropyl-1H-pyrazol-3-yl)methyl)-6-((1-methyl-1H-pyrazol-4-yl)sulfonyl)phthalazin-1(2H)-one]
Emax [1]: 116%
EC50: 0.12 µM

COc1ccc(Cn2ncc3cc([S@@](=N)(=O)c4ccccc4)ccc3c2=O)cn1 (single isomer, unassigned) [Example 133]
Emax [1]: 77.3%
EC50: 0.444 µM

COc1ccc(S(=O)(=O)c2ccc3c(=O)n(Cc4ccn(CCO)n4)ncc3c2)nc1 [Example 292, 2-((1-(2-hydroxyethyl)-1H-pyrazol-3-yl)methyl)-6-((5-methoxypyridin-2-yl)sulfonyl)phthalazin-1(2H)-one]
Emax [1]: 86.6%
EC50: 0.285 µM

COc1ccc(Cn2ncc3cc(S(=O)(=O)c4cccc(OC)n4)ccc3c2=O)cn1 [Example 160, 6-(6-methoxypyridin-3-yl)methyl)phthalazin-1(2H)-onemethoxypyridin-2-ylsulfonyl)-2-((6-]
Emax [1]: 83.3%
EC50: 0.237 µM

COc1ccc(S(=O)(=O)c2ccc3c(=O)n(Cc4cc(C(F)(F)F)no4)ncc3c2)cc1 [Example 112, 6-(4-methoxyphenylsulfonyl)-2-((3-(trifluoromethyl)isoxazol-5-yl)methyl)phthalazin-1(2H)-one]
Emax [1]: 66.4%
EC50: 0.0213 µM

O=c1c2ccc(S(=O)(=O)c3ccccc3)cc2cnn1Cc1n[nH]cc1CO [Example 26, 2-((4-(hydroxymethyl)-1H-pyrazol-3-yl)methyl)-6-(phenylsulfonyl)phthalazin-1(2H)-one]
Emax [1]: 106%
EC50: 0.838 µM

Cc1cc(Cn2ncc3cc(S(=O)(=O)c4csc(C)n4)ccc3c2=O)n[nH]1 [Example 358]
Emax [1]: 98.4%
EC50: 0.077 µM

Cc1cc(Cn2ncc3cc(S(=O)(=O)c4ccc5c(c4)CCO5)ccc3c2=O)n[nH]1 [Example 209, 6-((2,3-dihydrobenzofuran-5-yl)sulfonyl)-2-((5-methyl-1H-pyrazol-3-yl)methyl)phthalazin-1(2H)-one]
Emax [1]: 118%
EC50: 0.0232 µM

Cc1nc(Cn2ncc3cc(S(=O)(=O)c4cc[nH]n4)ccc3c2=O)ccc1F [Example 303]
Emax [1]: 118%
EC50: 0.0883 µM

Cc1cccc(Cn2ncc3cc(S(=O)(=O)c4n[nH]cc4Cl)ccc3c2=O)n1 [Example 319]
Emax [1]: 102%
EC50: 0.157 µM

Cc1onc(C(N)=O)c1Cn1ncc2cc(S(=O)(=O)c3ccccc3)ccc2c1=O [Example 94, 5-methyl-4-((1-oxo-6-(phenylsulfonyl)phthalazin-2(1H)-yl)methyl) isoxazole-3-carboxamide]
Emax [1]: 71.3%
EC50: 0.588 µM

COc1ccc(S(=O)(=O)c2ccc3c(=O)n(Cc4ccc(OC)nc4O)ncc3c2)cc1 [Example 109, 2-((2-hydroxy-6-methoxypyridin-3-yl)methyl)-6-(4-methoxyphenylsulfonyl)phthalazin-1(2H)-one]
Emax [1]: 96.5%
EC50: 0.141 µM

COc1ccc(S(=O)(=O)c2ccc3c(=O)n(Cc4c(O)ccnc4O)ncc3c2)cc1 [Example 255, 2-((2,4-dihydroxypyridin-3-yl)methyl)-6-(4-methoxyphenylsulfonyl)phthalazin-1(2H)-one]
Emax [1]: 104%
EC50: 0.155 µM

O=c1c2ccc(S(=O)(=O)c3cn[nH]c3)cc2cnn1Cc1ccc2c(n1)OCCO2 [Example 344]
Emax [1]: 107%
EC50: 0.0315 µM

COc1ccc(Cn2ncc3cc(S(=O)(=O)c4ccn5ccnc5c4)ccc3c2=O)cn1 [Example 184, 6-(imidazo[1,2-a]pyridin-7-ylsulfonyl)-2-((6-methoxypyridin-3-yl)methyl)phthalazin-1(2H)-one]
Emax [1]: 59.6%
EC50: 0.638 µM

O=c1c2ccc(S(=O)(=O)c3ccccc3)cc2cnn1Cc1cnc2ccccn12 [Example 261, 2-(imidazo[1,2-a]pyridin-3-ylmethyl)-6-(phenylsulfonyl)phthalazin-1(2H)-one]
Emax [1]: 68%
EC50: 0.216 µM

COc1ccc([S@](=N)(=O)c2ccc3c(=O)n(Cc4ccc(OC)nc4)ncc3c2)cc1 (single isomer, unassigned) [Example 139]
hPKM2 Emax [1]: 81.9%
EC50: 0.129 µM

Cc1nc(S(=O)(=O)c2ccc3c(=O)n(Cc4cc5n(n4)CCO5)ncc3c2)cs1 [Example 357]
Emax [1]: 100%
EC50: 0.0771 µM

Cn1cc(Cl)c(Cn2ncc3cc(S(=O)(=O)c4cn[nH]c4)ccc3c2=O)n1 [Example 308]
Emax [1]: 95.5%
EC50: 0.145 µM

COc1ccc(Cn2ncc3cc(S(=O)(=O)c4cccc5sc(C)nc45)ccc3c2=O)cn1 [Example 176, 2-((6-methoxypyridin-3-yl)methyl)-6-(2-methylbenzo[d]thiazol-4-ylsulfonyl)phthalazin-1(2H)-one]
Emax [1]: 95.8%
EC50: 0.455 µM

COc1ncccc1Cn1ncc2cc(S(=O)(=O)c3ccccc3)ccc2c1=O [Example 88, 2-((2-methoxypyridin-3-yl)methyl)-6-(phenylsulfonyl)phthalazin-1(2H)-one]
Emax [1]: 93.2%
EC50: 0.618 µM

COc1ccnc(S(=O)(=O)c2ccc3c(=O)n(Cc4ccc(OC)nc4)ncc3c2)c1 [Example 165, 6-(4-methoxypyridin-2-ylsulfonyl)-2-((6-methoxypyridin-3-yl)methyl)phthalazin-1(2H)-one]
Emax [1]: 77.5%
EC50: 0.456 µM

N#Cc1c[nH]nc1Cn1ncc2cc(S(=O)(=O)c3ccccc3)ccc2c1=O [Example 18, 3-((1-oxo-6-(phenylsulfonyl)phthalazin-2(1H)-yl)methyl)-1H-pyrazole-4-carbonitrile]
Emax [1]: 98.5%
EC50: 0.841 µM

COCCn1ccc(S(=O)(=O)c2ccc3c(=O)n(Cc4ccc5c(n4)CCO5)ncc3c2)n1 [Example 360]
Emax [1]: 113%
EC50: 0.0714 µM

COc1ccc(Cn2ncc3cc(S(=O)(=O)c4cn(C)c(C)n4)ccc3c2=O)cn1 [Example 185, 6-(1,2-dimethyl-1H-imidazol-4-ylsulfonyl)-2-((6-methoxypyridin-3-yl)methyl)phthalazin-1(2H)-one]
Emax [1]: 66%
EC50: 0.739 µM

COc1ccc(Cn2ncc3cc(S(=O)(=O)c4ccc(C)s4)ccc3c2=O)cn1 [Example 171, 2-((6-methoxypyridin-3-yl)methyl)-6-(5-methylthiophen-2-ylsulfonyl)phthalazin-1(2H)-one]
Emax [1]: 82.3%
EC50: 0.0772 µM

O=c1c2ccc(S(=O)(=O)c3ccncc3)cc2cnn1Cc1cc[nH]n1 [Example 254, 2-((1H-pyrazol-3-yl)methyl)-6-(pyridin-4-ylsulfonyl)phthalazin-1(2H)-one]
Emax [1]: 107%
EC50: 0.498 µM

COc1ccc(Cn2ncc3cc(S(=O)(=O)c4ccc5c(c4)OCCO5)ccc3c2=O)cn1 [Example 182, 6-((2,3-dihydrobenzo[b][1,4]dioxin-6-yl)sulfonyl)-2-((6-methoxypyridin-3-yl)methyl)phthalazin-1(2H)-one]
Emax [1]: 80.2%
EC50: 0.0152 µM

Nc1cccc(Cn2ncc3cc(S(=O)(=O)c4cccc5cccnc45)ccc3c2=O)c1 [Example 114, 2-(3-aminobenzyl)-6-(quinolin-8-ylsulfonyl)phthalazin-1(2H)-one]
Emax [1]: 97.1%
EC50: 0.208 µM

O=c1c2cnc(S(=O)(=O)c3cn[nH]c3)cc2cnn1Cc1ccc2c(n1)CCO2 [Example 347]
Emax [1]: 104%
EC50: 0.0245 µM

Cc1cc(Cn2ncc3cc(S(=O)(=O)c4cnn(C)c4)ccc3c2=O)n[nH]1 [Example 312]
Emax [1]: 102%
EC50: 0.215 µM
